Drawing on patent publication US20200055817A1 (AbbVie Deutschland GmbH & Co. KG, priority 2016, published 2020), this text covers EC50 for 16 molecules.

For orientation: EC50 means the midpoint of the concentration-response curve.

Assay type in all cases: cell-based
Experiment [1] concerns the target T1, human EDG1 (S1PR1) receptor (Homo sapiens, UniProt P21453).
T1 construct: expressed in transfected cells; host or cells: CHO-A21-Edg1#17 (CHO clone co-expressing mitochondrial aequorin and chimaeric Gaqi5)
Kind of experiment: Aequorin assay, agonist potency, CHO-A21-Edg1#17 cells. The settings on record: agonist mode, aequorin luminescence; read-out: S1P1 EC50. In a few lines:
(§1)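 CHO cells coexpressing receptor, mitochondrial aequorin and Gαqi5 (S1P3 pool: GNA16) were loaded overnight at RT with 5 μM coelenterazine h in 0.1% fatty-acid-free BSA buffer. Cells were injected onto compound, luminescence recorded 90 s and integrated, normalised to digitonin or 20 μM ATP; sigmoidal fit.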

The target in experiment [2] is T2, human EDG3 (S1PR3) receptor (Homo sapiens, UniProt Q99500).
T2 construct: expressed in transfected cells; host or cells: CHO-A2-S1P3 Mix (CHO cell pool co-expressing mitochondrial aequorin and GNA16)
T2 sequence (Q99500 whole entry): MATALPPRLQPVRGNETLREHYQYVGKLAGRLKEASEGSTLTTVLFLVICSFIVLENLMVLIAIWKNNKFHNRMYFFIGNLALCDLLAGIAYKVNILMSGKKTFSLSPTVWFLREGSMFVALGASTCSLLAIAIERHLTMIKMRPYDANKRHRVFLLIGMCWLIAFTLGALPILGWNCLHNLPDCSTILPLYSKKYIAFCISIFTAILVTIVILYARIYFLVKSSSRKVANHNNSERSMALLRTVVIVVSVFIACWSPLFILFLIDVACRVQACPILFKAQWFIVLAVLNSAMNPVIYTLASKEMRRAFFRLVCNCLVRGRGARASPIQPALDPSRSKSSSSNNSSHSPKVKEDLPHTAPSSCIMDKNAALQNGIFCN
Kind of experiment: Aequorin assay, agonist potency, CHO-A2-S1P3 Mix cells. The following applies: agonist mode, aequorin luminescence. The procedure: Agonistic activity was measured as described below.
Cell clone CHO-A21-Edg1#17 carries the transgenes human EDG1 (S1PR1) receptor (Accession number NP_001391.2), mitochondrially targeted Aequorin (active part corresponds to accession number 1SL8_A) and chimaeric Gaqi5=Gaq modified with the 5 C-terminal amino-acids replaced with those of the Gai protein (DCGLF). CHO-A2-S1P3 Mix is a cell pool ectopically expressing human EDG3 (S1PR3) receptor (Accession number NP_005217.2) mitochondrially targeted Aequorin (active part has a sequence similar to accession number AY601106.1) and GNA16 (Accession number NP_002059.3). Cell clone CHO-A21-EDG8#12 carries the transgenes human EDG8 (S1PR5) receptor (Acession number NP_110387.1), mitochondrially expressed Aequorin (active part corresponds to accession number 1SL8_A) and chimaeric Gaqi5 (Gaq modified to present the 5 last amino-acids of the Gai protein “DCGLF”; see above). Cells are grown to mid-log phase in culture medium (HAM's F12, 10% FBS, 100 IU/mL penicillin, 100 μg/mL streptomycin, 250 μg/mL Zeocin, 400 μg/mL G418). 18 hours prior to frozen cells preparation, the medium is changed to remove the antibiotics.
18 hours prior to the test, vials of frozen cells are quickly thawed in a 37° C. water bath, cells are recovered by centrifugation and resuspended in assay buffer (DMEM/HAM's F12 with HEPES, without phenol red+0.1% fatty acid-free BSA). Cells are gently agitated in suspension overnight at RT in presence of 5 μM of Coelenterazine h (Molecular Probes). On the day of the test, cells are diluted to their final working concentrations in assay buffer and agitated in suspension for 1 h at RT. Cells are then placed in the luminescence reader (Hamamatsu Functional Drug Screening System 6000, FDSS6000). During cells incubation, compounds are prepared in 100% DMSO, and subsequently diluted in assay buffer. Compounds are then dispensed in the assay plate (black, clear-bottom, 384-well plate). After binding of agonists to the human S1P receptor the intracellular calcium concentration increases and binding of calcium to the Aequorin/Coelenterazine complex leads to an oxidation reaction of coelenterazine, which results in the production of Aequorin, coelenteramide, CO2 and light (Dmax 469 nm). The luminescent response is dependent on the agonist concentration. For agonist testing, 30 μL of cell suspension are injected on 30 μL of test compound or reference agonist in the assay plate. The resulting emission of light is recorded for 90 seconds using the FDSS6000. Dose response curves with the reference compounds are performed before testing the compounds. S1P is the reference agonist and JTE-013 the reference antagonist for S1P2.
Luminescence data are integrated over the reading interval for agonist and antagonist modes. To standardize the emission of recorded light (determination of the “100% signal”) across plates and across different experiments, some of the wells contain 100 μM digitonin or a saturating concentration of ATP (20 μM). Plates also contain the reference agonist at a concentration equivalent to the EC80 obtained during the test validation and the EC100. Dose-response data from test compounds were analyzed with XLfit (IDBS) software using nonlinear regression applied to a sigmoidal dose-response model and the following equation: […]

Experiment [3] concerns the target T3, S1P4 (Homo sapiens, UniProt O95977).
T3 sequence (O95977 1-384): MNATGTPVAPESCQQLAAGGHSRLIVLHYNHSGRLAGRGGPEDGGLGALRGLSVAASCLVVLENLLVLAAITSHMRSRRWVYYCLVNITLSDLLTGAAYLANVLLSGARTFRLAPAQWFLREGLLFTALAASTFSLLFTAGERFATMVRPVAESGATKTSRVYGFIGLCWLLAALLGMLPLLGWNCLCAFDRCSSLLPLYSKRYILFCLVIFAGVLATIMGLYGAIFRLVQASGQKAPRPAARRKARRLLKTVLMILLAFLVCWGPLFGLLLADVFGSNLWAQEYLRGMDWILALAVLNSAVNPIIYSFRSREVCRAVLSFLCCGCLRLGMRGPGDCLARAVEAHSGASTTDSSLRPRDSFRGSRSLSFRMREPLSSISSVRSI
Kind of experiment: Aequorin assay, agonist potency, S1P4. The following applies: agonist mode, aequorin luminescence. The method, boiled down: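 Cells loaded overnight at RT with 5 μM coelenterazine h in DMEM/HAM's F12 with HEPES plus 0.1% fatty acid-free BSA, then injected onto compounds; agonist-induced calcium luminescence recorded for 90 s and integrated. Signal normalised to digitonin (100 μM) or ATP (20 μM) wells, S1P as reference agonist; sigmoidal nonlinear regression.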

Experiment [4] addresses T4, human EDG8 (S1PR5) receptor (Homo sapiens, UniProt Q9H228).
T4 construct: carries the transgenes human EDG8 (S1PR5) receptor (Acession number NP_110387.1); expressed in transfected cells; host or cells: CHO-A21-EDG8#12 (CHO clone co-expressing mitochondrial aequorin and chimaeric Gaqi5)
Kind of experiment: Aequorin assay, agonist potency, CHO-A21-EDG8#12 cells. The settings on record: agonist mode, aequorin luminescence; read-out: S1P5 EC50 range #. The method, boiled down:
as §1

Bounds are passed on as bounds.

T1 sequence (P21453 whole entry): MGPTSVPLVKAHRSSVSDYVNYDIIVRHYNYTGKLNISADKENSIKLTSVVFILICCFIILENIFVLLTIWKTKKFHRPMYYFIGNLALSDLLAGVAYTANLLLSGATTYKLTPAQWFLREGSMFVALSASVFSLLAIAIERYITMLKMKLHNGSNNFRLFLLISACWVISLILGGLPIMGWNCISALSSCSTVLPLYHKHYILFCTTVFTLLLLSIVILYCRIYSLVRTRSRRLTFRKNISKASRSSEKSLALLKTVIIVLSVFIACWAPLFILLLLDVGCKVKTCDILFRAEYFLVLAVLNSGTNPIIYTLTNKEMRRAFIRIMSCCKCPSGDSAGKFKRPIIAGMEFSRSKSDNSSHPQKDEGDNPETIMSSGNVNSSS
T4 sequence (Q9H228 whole entry): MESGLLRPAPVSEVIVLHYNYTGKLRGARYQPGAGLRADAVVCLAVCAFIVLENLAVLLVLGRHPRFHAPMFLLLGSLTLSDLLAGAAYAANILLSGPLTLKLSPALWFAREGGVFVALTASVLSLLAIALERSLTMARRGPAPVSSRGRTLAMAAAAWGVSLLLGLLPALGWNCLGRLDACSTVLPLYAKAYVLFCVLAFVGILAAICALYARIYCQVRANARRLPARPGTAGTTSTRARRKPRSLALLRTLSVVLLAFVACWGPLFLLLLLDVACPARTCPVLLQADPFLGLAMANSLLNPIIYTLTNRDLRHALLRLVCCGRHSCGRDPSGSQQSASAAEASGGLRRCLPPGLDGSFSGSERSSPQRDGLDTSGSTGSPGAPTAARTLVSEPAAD

Take `O=C(O)CN1CC2(Cc3ccc(OCc4ccc(Cl)c(Cl)c4)cc3C2)C1` [Example 25, 2,2,2-trifluoroacetic acid compound with 2-(5′-((3,4-dichlorobenzyl)oxy)-1′,3′-dihydrospiro[azetidine-3,2′-inden]-1-yl)acetic acid (1:1)]: the EC50 is greater than 1 µM in experiment [1], greater than 1 µM in experiment [2], less than 1 µM in experiment [3] and 0.01 to 0.1 µM in experiment [4].

With `O=C(O)CN1CC2(Cc3ccc(OCc4cccc(Cl)c4)cc3C2)C1` [Example 16, 2-(5′-((3-chlorobenzyl)oxy)-1′,3′-dihydrospiro[azetidine-3,2′-inden]-1-yl)acetic acid compound with acetic acid (1:1)], the EC50 in experiment [1] is greater than 1 µM; in experiment [2], greater than 1 µM; in experiment [3], less than 1 µM; in experiment [4], no more than 0.01 µM.

With `O=C(O)CN1CC2(Cc3ccc(OCc4ccc(Cl)cc4)cc3C2)C1` [Example 11, 2-(5′-((4-chlorobenzyl)oxy)-1′,3′-dihydrospiro[azetidine-3,2′-inden]-1-yl)acetic acid], the EC50 in experiment [1] is greater than 1 µM; in experiment [2], greater than 1 µM; in experiment [3], less than 1 µM; in experiment [4], 1 to 10 µM.

Turning to `O=C(O)C1(CN2CC3(Cc4ccc(OCc5ccccc5)cc4C3)C2)CC1` [Example 29, 1-((5′-(benzyloxy)-1′,3′-dihydrospiro[azetidine-3,2′-inden]-1-yl)methyl)cyclopropanecarboxylic acid], the EC50 is greater than 1 µM in experiment [1], greater than 1 µM in experiment [2], greater than 1 µM in experiment [3] and 1 to 10 µM in experiment [4].

With `O=C(O)CN1CC2(Cc3ccc(OCCc4ccccc4C(F)(F)F)cc3C2)C1` [Example 62], the EC50 in experiment [1] was greater than 1 µM; in experiment [2], greater than 1 µM; in experiment [3] it was less than 1 µM; in experiment [4] it was no more than 0.01 µM.

`O=C(O)CN1CC2(Cc3ccc(OCc4c(F)cccc4C4CC4)cc3C2)C1` [Example 110, 2-(5′-((2-cyclopropyl-6-fluorobenzyl)oxy)-1′,3′-dihydrospiro[azetidine-3,2′-inden]-1-yl)acetic acid]: the EC50 in experiment [1] is greater than 1 µM; in experiment [2], greater than 1 µM; in experiment [3], less than 1 µM; in experiment [4] it was no more than 0.01 µM.

For the molecule `CCc1cccc(Cl)c1COc1ccc2c(c1)CC1(C2)CN(CC(=O)O)C1` [Example 24, 2,2,2-trifluoroacetic acid compound with 2-(5′-((2-chloro-6-ethylbenzyl)oxy)-1′,3′-dihydrospiro[azetidine-3,2′-inden]-1-yl)acetic acid (1:1)], the EC50 was greater than 1 µM in experiment [1], greater than 1 µM in experiment [2], less than 1 µM in experiment [3] and no more than 0.01 µM in experiment [4].

With `O=C(O)C1(CN2CC3(Cc4ccc(-c5ccc(OCc6ccc(Cl)cc6)cc5)cc4C3)C2)CC1` [Example 108, 1-((5′-(4-((4-chlorobenzyl)oxy)phenyl)-1′,3′-dihydrospiro[azetidine-3,2′-inden]-1-yl)methyl)cyclopropanecarboxylic acid], the EC50 in experiment [1] is greater than 1 µM; in experiment [2], greater than 1 µM; in experiment [3], greater than 1 µM; in experiment [4] it was 0.01 to 0.1 µM.

Turning to `O=C(O)CN1CC2(Cc3ccc(OCc4ccccc4C4CC4)cc3C2)C1` [Example 111, 2-(5′-((2-cyclopropylbenzyl)oxy)-1′,3′-dihydrospiro[azetidine-3,2′-inden]-1-yl)acetic acid], the EC50 in experiment [1] is greater than 1 µM; in experiment [2], greater than 1 µM; in experiment [3], less than 1 µM; in experiment [4], no more than 0.01 µM.

On to `CCc1cccc(Cl)c1COc1ccc2c(c1)CC1(C2)CN(CC(C)CC(=O)O)C1` (stereo not drawn) [Example 64, 4-(5′-((2-chloro-6-ethylbenzyl)oxy)-1′,3′-dihydrospiro[azetidine-3,2′-inden]-1-yl)-3-methylbutanoic acid], for which the values for the EC50 in experiment [2], in experiment [3] and in experiment [4] were greater than 1 µM, less than 1 µM and no more than 0.01 µM, respectively.

For `CC(C)Oc1ccc(C#Cc2ccc3c(c2)CC2(C3)CN(CC3(C(=O)O)CC3)C2)cn1` [Example 114, 1-((5′-((6-isopropoxypyridin-3-yl)ethynyl)-1′,3′-dihydrospiro[azetidine-3,2′-inden]-1-yl)methyl)cyclopropanecarboxylic acid], the EC50 in experiment [1] was greater than 1 µM; in experiment [3], greater than 1 µM; in experiment [4] it was 0.1 to 1 µM.

With `CC(Oc1ccc(C#Cc2ccc3c(c2)CC2(C3)CN(C3CC(C(=O)O)C3)C2)cn1)C(F)(F)F` (stereo not drawn) [Example 103, 3-(5′-((6-((1,1,1-trifluoropropan-2-yl)oxy)pyridin-3-yl)ethynyl)-1′,3′-dihydrospiro[azetidine-3,2′-inden]-1-yl)cyclobutanecarboxylic acid], the EC50 is less than 1 µM in experiment [1], less than 1 µM in experiment [3] and no more than 0.01 µM in experiment [4].

`O=C(O)C1(CN2CC3(Cc4ccc(OCCC5CCCCC5)cc4C3)C2)CC1` [Example 132, 1-((5′-(2-cyclohexylethoxy)-1′,3′-dihydrospiro[azetidine-3,2′-inden]-1-yl)methyl)cyclopropanecarboxylic acid]: the EC50 in experiment [1] was greater than 1 µM; in experiment [3], less than 1 µM; in experiment [4], 1 to 10 µM.

In the case of `CC(C)Oc1ccc(C#Cc2ccc3c(c2)CC2(C3)CN(CC(=O)O)C2)cn1` [Example 75, 2-(5′-((6-isopropoxypyridin-3-yl)ethynyl)-1′,3′-dihydrospiro[azetidine-3,2′-inden]-1-yl)acetic acid], the EC50 was less than 1 µM in experiment [1], greater than 1 µM in experiment [3] and no more than 0.01 µM in experiment [4].

Consider `O=C(O)C1(CN2CC3(Cc4ccc(OCCc5ccccc5C(F)(F)F)cc4C3)C2)CC1` [Example 56, 1-((5′-(2-(trifluoromethyl)phenethoxy)-1′,3′-dihydrospiro[azetidine-3,2′-inden]-1-yl)methyl)cyclopropanecarboxylic acid], for which the values for the EC50 in experiment [1], in experiment [3] and in experiment [4] were greater than 1 µM, less than 1 µM and 0.01 to 0.1 µM, respectively.

`CCOc1ccc(C#Cc2ccc3c(c2)CC2(C3)CN(CC3(C(=O)O)CC3)C2)cc1` [Example 112, 1-((5′-((4-ethoxyphenyl)ethynyl)-1′,3′-dihydrospiro[azetidine-3,2′-inden]-1-yl)methyl)cyclopropanecarboxylic acid]: the EC50 is greater than 1 µM in experiment [1], greater than 1 µM in experiment [3] and 0.1 to 1 µM in experiment [4].
